Test results taken from ChEMBL document CHEMBL3612057, “Discovery of indolizines containing triazine moiety as new leads for the development of antitumoral agents targeting mitotic events” (2015).
Activity calls are given as the source filed them. No cut-off for these calls is given here.

What was measured:
UACC-62 = assay: Cytotoxicity against human UACC62 cells assessed as growth inhibition at 10 uM after 24 hrs by SRB assay; assay type: functional
HOP-92 [1] = assay: Cytotoxicity against human HOP92 cells assessed as growth inhibition at 10 uM after 24 hrs by SRB assay; assay type: functional
OVCAR-3 = assay: Cytotoxicity against human OVCAR3 cells assessed as growth inhibition at 10 uM after 24 hrs by SRB assay; assay type: functional
NCI-H226 = assay: Cytotoxicity against human NCI-H226 cells assessed as growth inhibition at 10 uM after 24 hrs by SRB assay; assay type: functional
A549 = assay: Cytotoxicity against human A549 cells assessed as growth inhibition at 10 uM after 24 hrs by SRB assay; assay type: functional
786-0 [2] = assay: Cytotoxicity against human 786-0 cells after 48 hrs by SRB assay; assay type: functional; settings: 786-0, 48 h
RPMI-8226 = assay: Cytotoxicity against human RPMI8226 cells assessed as growth inhibition at 10 uM after 24 hrs by SRB assay; assay type: functional
HOP-62 [3] = assay: Cytotoxicity against human HOP62 cells assessed as growth inhibition at 10 uM after 24 hrs by SRB assay; assay type: functional
786-0 [4] = assay: Cytotoxicity against human 786-0 cells assessed as growth inhibition at 10 uM after 24 hrs by SRB assay; assay type: functional
HCT-116 = assay: Cytotoxicity against human HCT116 cells assessed as growth inhibition at 10 uM after 24 hrs by SRB assay; assay type: functional
NCI-H460 = assay: Cytotoxicity against human NCI-H460 cells assessed as growth inhibition at 10 uM after 24 hrs by SRB assay; assay type: functional
Ovis aries = species on record: Ovis aries; assay: Inhibition of sheep tubulin polymerization at 100 uM by fluorescence assay
CCRF-CEM = assay: Cytotoxicity against human CCRF-CEM cells assessed as growth inhibition at 10 uM after 24 hrs by SRB assay; assay type: functional
SNB-75 [5] = assay: Cytotoxicity against human SNB75 cells assessed as growth inhibition at 10 uM after 24 hrs by SRB assay; assay type: functional; settings: SNB-75, 24 h, read-out: GI
HOP-62 [6] = assay: Cytotoxicity against human HOP62 cells after 48 hrs by SRB assay; assay type: functional; settings: HOP-62, 48 h
SR = assay: Cytotoxicity against human SR cells assessed as growth inhibition at 10 uM after 24 hrs by SRB assay; assay type: functional
K562 = assay: Cytotoxicity against human K562 cells assessed as growth inhibition at 10 uM after 24 hrs by SRB assay; assay type: functional
HOP-92 [7] = assay: Cytotoxicity against human HOP92 cells after 48 hrs by SRB assay; assay type: functional; settings: HOP-92, 48 h
MDA-MB-231 = assay: Cytotoxicity against human MDA-MB-231 cells assessed as growth inhibition at 10 uM after 24 hrs by SRB assay; assay type: functional; settings: MDA-MB-231, 24 h, read-out: GI
UACC-257 = assay: Cytotoxicity against human UACC257 cells assessed as growth inhibition at 10 uM after 24 hrs by SRB assay; assay type: functional
PC-3 = assay: Cytotoxicity against human PC3 cells assessed as growth inhibition at 10 uM after 24 hrs by SRB assay; assay type: functional; settings: PC-3, 24 h, read-out: GI
RXF 393 [8] = assay: Cytotoxicity against human RXF393 cells assessed as growth inhibition at 10 uM after 24 hrs by SRB assay; assay type: functional
MDA-MB-435 = assay: Cytotoxicity against human MDA-MB-435 cells assessed as growth inhibition at 10 uM after 24 hrs by SRB assay; assay type: functional
NCI-H522 = assay: Cytotoxicity against human NCI-H522 cells assessed as growth inhibition at 10 uM after 24 hrs by SRB assay; assay type: functional
MCF7 = assay: Cytotoxicity against human MCF7 cells assessed as growth inhibition at 10 uM after 24 hrs by SRB assay; assay type: functional; settings: MCF7, 24 h, read-out: GI
U-251 = assay: Cytotoxicity against human U251 cells assessed as growth inhibition at 10 uM after 24 hrs by SRB assay; assay type: functional
HL-60(TB) = assay: Cytotoxicity against human HL-60(TB) cells assessed as growth inhibition at 10 uM after 24 hrs by SRB assay; assay type: functional
SF-295 = assay: Cytotoxicity against human SF295 cells assessed as growth inhibition at 10 uM after 24 hrs by SRB assay; assay type: functional
Malme-3M = assay: Cytotoxicity against human MALME-3M cells assessed as growth inhibition at 10 uM after 24 hrs by SRB assay; assay type: functional
OVCAR-4 = assay: Cytotoxicity against human OVCAR4 cells assessed as growth inhibition at 10 uM after 24 hrs by SRB assay; assay type: functional
NCI/ADR-RES = assay: Cytotoxicity against human NCI/ADR-RES cells assessed as growth inhibition at 10 uM after 24 hrs by SRB assay; assay type: functional
OVCAR-8 = assay: Cytotoxicity against human OVCAR8 cells assessed as growth inhibition at 10 uM after 24 hrs by SRB assay; assay type: functional
T47D = assay: Cytotoxicity against human T47D cells assessed as growth inhibition at 10 uM after 24 hrs by SRB assay; assay type: functional; settings: read-out: GI
SF-539 = assay: Cytotoxicity against human SF539 cells assessed as growth inhibition at 10 uM after 24 hrs by SRB assay; assay type: functional
[9] = (§1) Cytotoxicity against human Hs578T cells assessed as growth inhibition at 10 uM after 24 hrs by SRB assay; assay type: functional; settings: Hs-578T, read-out: GI
SK-MEL-5 = assay: Cytotoxicity against human SK-MEL-5 cells assessed as growth inhibition at 10 uM after 24 hrs by SRB assay; assay type: functional
SK-MEL-28 = assay: Cytotoxicity against human SK-MEL-28 cells assessed as growth inhibition at 10 uM after 24 hrs by SRB assay; assay type: functional
TK-10 = assay: Cytotoxicity against human TK10 cells assessed as growth inhibition at 10 uM after 24 hrs by SRB assay; assay type: functional
ACHN = assay: Cytotoxicity against human ACHN cells assessed as growth inhibition at 10 uM after 24 hrs by SRB assay; assay type: functional
SNB-75 [10] = assay: Cytotoxicity against human SNB75 cells after 48 hrs by SRB assay; assay type: functional; settings: SNB-75, 48 h
CAKI-1 = assay: Cytotoxicity against human CAKI-1 cells assessed as growth inhibition at 10 uM after 24 hrs by SRB assay; assay type: functional; settings: CAKI-1, 24 h, read-out: GI
SK-OV-3 = assay: Cytotoxicity against human SKOV3 cells assessed as growth inhibition at 10 uM after 24 hrs by SRB assay; assay type: functional
RXF 393 [11] = assay: Cytotoxicity against human RXF393 cells after 48 hrs by SRB assay; assay type: functional; settings: RXF 393, 48 h
Hs-578T = assay: as §1; assay type: functional

COc1nc(OC)nc(-c2cc(C(=O)c3ccc(Br)cc3)n3ccc4ccccc4c23)n1
growth inhibition (GI) (UACC-62): inactive | growth inhibition (GI) (HOP-92 [1]): inactive | inhibition of growth at 10 µM (OVCAR-3; OVCAR-3, 24 h, read-out: GI): 51% | inhibition of growth at 10 µM (NCI-H226; NCI-H226, 24 h, read-out: GI): 28% | inhibition of growth at 10 µM (A549; A549, 24 h, read-out: GI): 55% | GI50 (786-0 [2]): 4.06 µM | growth inhibition (GI) (RPMI-8226): inactive | growth inhibition (GI) (HOP-62 [3]): inactive | inhibition of growth at 10 µM (786-0 [4]; 786-0, 24 h, read-out: GI): 81% | growth inhibition (GI) (HCT-116): inactive | inhibition of growth at 10 µM (NCI-H460; NCI-H460, 24 h, read-out: GI): 71% | inhibition (Ovis aries): inactive | growth inhibition (GI) (CCRF-CEM): inactive | inhibition of growth at 10 µM (SNB-75 [5]): 75% | GI50 (HOP-62 [6]): 22.8 µM | growth inhibition (GI) (SR): inactive | growth inhibition (GI) (K562): inactive | GI50 (HOP-92 [7]): 13.2 µM | inhibition of growth at 10 µM (MDA-MB-231): 96% | inhibition of growth at 10 µM (UACC-257; UACC-257, 24 h, read-out: GI): 32% | inhibition of growth at 10 µM (PC-3): 58% | inhibition of growth at 10 µM (RXF 393 [8]; RXF 393, 24 h, read-out: GI): 81% | growth inhibition (GI) (MDA-MB-435): inactive | growth inhibition (GI) (NCI-H522): inactive | inhibition of growth at 10 µM (MCF7): 60% | growth inhibition (GI) (U-251): inactive | growth inhibition (GI) (HL-60(TB)): inactive | inhibition of growth at 10 µM (SF-295; SF-295, 24 h, read-out: GI): 76% | inhibition of growth at 10 µM (Malme-3M; read-out: GI): 67% | inhibition of growth at 10 µM (OVCAR-4; OVCAR-4, 24 h, read-out: GI): 33% | inhibition of growth at 10 µM (NCI/ADR-RES; read-out: GI): 46% | inhibition of growth at 10 µM (OVCAR-8; OVCAR-8, 24 h, read-out: GI): 50% | inhibition of growth at 10 µM (T47D): 38% | growth inhibition (GI) (SF-539): inactive | inhibition of growth at 10 µM [9]: 65% | growth inhibition (GI) (SK-MEL-5): inactive | inhibition of growth at 10 µM (SK-MEL-28; SK-MEL-28, 24 h, read-out: GI): 52% | growth inhibition (GI) (TK-10): inactive | inhibition of growth at 10 µM (ACHN; read-out: GI): 29% | GI50 (SNB-75 [10]): 2.58 µM | inhibition of growth at 10 µM (CAKI-1): 44% | growth inhibition (GI) (SK-OV-3): inactive | GI50 (RXF 393 [11]): 3.57 µM

COc1nc(OC)nc(-c2cc(C(=O)c3ccc(C)cc3)n3ccccc23)n1
growth inhibition (GI) (UACC-62): inactive | growth inhibition (GI) (HOP-92 [1]): inactive | growth inhibition (GI) (OVCAR-3): inactive | growth inhibition (GI) (NCI-H226): inactive | growth inhibition (GI) (A549): inactive | inhibition of growth at 10 µM (RPMI-8226; RPMI-8226, 24 h, read-out: GI): 26% | growth inhibition (GI) (HOP-62 [3]): inactive | growth inhibition (GI) (786-0 [4]): inactive | inhibition of growth at 10 µM (HCT-116; HCT-116, 24 h, read-out: GI): 12% | growth inhibition (GI) (NCI-H460): inactive | inhibition (Ovis aries): inactive | inhibition of growth at 10 µM (CCRF-CEM; read-out: GI): 13% | inhibition of growth at 10 µM (SNB-75 [5]): 18% | inhibition of growth at 10 µM (SR; read-out: GI): 22% | growth inhibition (GI) (K562): inactive | inhibition of growth at 10 µM (MDA-MB-231): 35% | growth inhibition (GI) (UACC-257): inactive | inhibition of growth at 10 µM (PC-3): 13% | growth inhibition (GI) (RXF 393 [8]): inactive | growth inhibition (GI) (MDA-MB-435): inactive | growth inhibition (GI) (NCI-H522): inactive | inhibition of growth at 10 µM (MCF7): 10% | growth inhibition (GI) (U-251): inactive | growth inhibition (GI) (HL-60(TB)): inactive | growth inhibition (GI) (SF-295): inactive | growth inhibition (GI) (Malme-3M): inactive | growth inhibition (GI) (OVCAR-4): inactive | growth inhibition (GI) (NCI/ADR-RES): inactive | growth inhibition (GI) (OVCAR-8): inactive | inhibition of growth at 10 µM (T47D): 15% | growth inhibition (GI) (SF-539): inactive | growth inhibition (GI) (Hs-578T): inactive | inhibition of growth at 10 µM (SK-MEL-5; SK-MEL-5, 24 h, read-out: GI): 19% | growth inhibition (GI) (SK-MEL-28): inactive | growth inhibition (GI) (TK-10): inactive | growth inhibition (GI) (ACHN): inactive | inhibition of growth at 10 µM (CAKI-1): 43% | growth inhibition (GI) (SK-OV-3): inactive
